Assay [1] deals with human cathepsin K (UniProt P43236). As to the kind of experiment: Cathepsin K Assay (hrbCat K). In kind it is biochemical. The conditions noted are these: human cathepsin K 0.4 nM, Z-Leu-Arg-AMC 8 μM, pH 5.5, 15 min preincubation; read-out: hrbCat K IP. On the procedure: Cathepsin K Assay (hrbCat K)
(§1) Serial dilutions (⅓) from 500 μM down to 0.025 μM of test compounds were prepared in dimethyl sulfoxide (DMSO). Then 0.5 μL of DMSO from each dilution were added to 18.75 μL of assay buffer (MES, 50 mM (pH 5.5); EDTA, 2.5 mM; DTT, 2.5 mM and 10% DMSO) containing human cathepsin K (0.4 nM) in assay buffer solution. The assay solutions were mixed for 5-10 seconds on a shaker plate and incubated for 15 minutes at room temperature. Z-Leu-Arg-AMC (8 μM) in 6.25 μL of assay buffer was added to the assay solutions. Hydrolysis of the coumarin leaving group (AMC) was followed by spectrofluorometry (Exλ=360 nm; Emλ=460 nm) for 30 minutes. Percent of inhibition were calculated by fitting experimental values to standard mathematical model for dose response curve.

For assay [2], the target named is T1, human cathepsin F (Homo sapiens, UniProt Q9UBX1).
T1 sequence (Q9UBX1 271-484): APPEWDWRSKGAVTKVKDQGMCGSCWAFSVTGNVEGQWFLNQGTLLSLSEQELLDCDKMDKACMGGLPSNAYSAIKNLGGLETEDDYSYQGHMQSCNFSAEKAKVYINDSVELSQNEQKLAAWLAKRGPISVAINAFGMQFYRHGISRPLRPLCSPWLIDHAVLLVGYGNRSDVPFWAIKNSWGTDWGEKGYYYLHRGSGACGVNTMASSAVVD
As to the kind of experiment: Cathepsin F assay (hCat F). It counts as biochemical. To be noted: human cathepsin F 10 nM, Z-Phe-Arg-AMC 8 μM, pH 5.5, 15 min preincubation; read-out: hCat F IP. On the procedure:
Cathepsin F assay (hCat F)
as §1, with “F (10” for “K (0.4”, “Z-Phe-Arg-AMC” for “Z-Leu-Arg-AMC”, “(Exp, =360” for “(Exλ=360”, “EmX=460” for “Emλ=460”, “20” for “30”

Where only a bound is given, the exact number is not on record here.

The values that follow come from US9458181B2, “Cathepsin cysteine protease inhibitors” (Merck Sharp & Dohme Corp., priority 2013, dated 2016).

Regarding `N#CC1(NC(=O)[C@@H]2CCCC[C@H]2c2oc(C(F)(F)C(F)(F)F)nc2-c2ccc(N3CCS(=O)(=O)CC3)cc2)CC1` [Example 3, (1R,2R)—N-(1-Cyanocyclopropyl)-2-(4-(4-(1,1-dioxidothiomorpholino)phenyl)-2-(perfluoroethyl)oxazol-5-yl)cyclohexanecarboxamide], the IC50 turned out to be 1.02 nM in assay [1] and 666 nM in assay [2].

Regarding `N#CC1(NC(=O)[C@@H]2CCCC[C@H]2c2oc(-c3ccc(F)cc3F)nc2-c2ccc(N3CCS(=O)(=O)CC3)cc2)CC1` [Example 27, (1R,2R)-N-(1-cyanocyclopropyl)-2-(2-(2,4-difluorophenyl)-4-(4-(1,1-dioxidothiomorpholino)phenyl)oxazol-5-yl)cyclohexanecarboxamide], the IC50 worked out at 0.37 nM in assay [1] and 681 nM in assay [2].

For `CC1CC1(C#N)NC(=O)[C@@H]1CCCC[C@H]1c1oc(-c2ccc(F)cc2)nc1-c1ccc(N2CCS(=O)(=O)CC2)cc1` (single isomer, unassigned) [Example 134, (1R,2R)-N-((2S or 2R)-1-cyano-2-methylcyclopropyl)-2-(4-(4-(1,1-dioxidothiomorpholino)phenyl)-2-(4-fluorophenyl)oxazol-5-yl)cyclohexanecarboxamide], the IC50 in assay [1] is 2900 nM; in assay [2], no less than 10000 nM.

With `N#CC1(NC(=O)[C@@H]2CCCC[C@H]2c2oc(-c3ccc(Cl)cc3F)nc2-c2ccc(N3CCS(=O)(=O)CC3)cc2)CC1` [Example 94, (1R,2R)-2-(2-(4-chloro-2-fluorophenyl)-4-(4-(1,1-dioxidothiomorpholino)phenyl)oxazol-5-yl)-N-(1-cyanocyclopropyl) cyclohexanecarboxamide], the IC50 in assay [1] came to 1.2 nM; in assay [2], 380 nM.

On to `C[C@@H](C#N)NC(=O)[C@@H]1CC(F)(F)CC[C@H]1c1oc(C(F)(F)C(F)(F)F)nc1-c1ccc(C(=O)N2CCOCC2)cc1` [Example 137, (1R,2R)-N-((S)-1-cyanoethyl)-5,5-difluoro-2-(4-(4-(morpholine-4-carbonyl)phenyl)-2-(perfluoroethyl)oxazol-5-yl)cyclohexanecarboxamide], for which the IC50 in assay [1] is 0.39 nM; in assay [2], 295 nM.

With `CC(C)(C)c1nc(-c2ccc(N3CCS(=O)(=O)CC3)cc2)c([C@@H]2CCCC[C@H]2C(=O)NC2(C#N)CC2)s1` [Example 10, (1R,2R)-2-(2-(tert-butyl)-4-(4-(1,1-dioxidothiomorpholino)phenyl)thiazol-5-yl)-N-(1-cyanocyclopropyl)cyclohexanecarboxamide], the IC50 in assay [1] was 1.65 nM; in assay [2], 1440 nM.

`COC(c1ccccc1)(c1nc(-c2ccc(N3CCS(=O)(=O)CC3)cc2)c([C@@H]2CCCC[C@H]2C(=O)NC2(C#N)CC2)o1)C(F)(F)F` (mixture of isomers) [Example 116, (1R,2R)-N-(1-cyanocyclopropyl)-2-(4-(4-(1,1-dioxidothiomorpholino)phenyl)-2-((R and S)-2,2,2-trifluoro-1-methoxy-1-phenylethyl)oxazol-5-yl)cyclohexanecarboxamide]: the results for the IC50 in assay [1] and in assay [2] were 1.38 nM and 1210 nM, respectively.

As for `N#CC1(NC(=O)[C@@H]2CCCC[C@H]2c2oc(-c3ccccc3F)nc2-c2ccc(N3CCS(=O)(=O)CC3)cc2)CC1` [Example 67, (1R,2R)-N-(1-cyanocyclopropyl)-2-(4-(4-(1,1-dioxidothiomorpholino)phenyl)-2-(2-fluorophenyl)oxazol-5-yl)cyclohexanecarboxamide], the results for the IC50 in assay [1] and in assay [2] were 0.57 nM and 619 nM, respectively.

As for `N#CC1(NC(=O)[C@@H]2CCCC[C@H]2c2oc(-c3ccc(Cl)cc3)nc2-c2ccc(N3CCS(=O)(=O)CC3)cc2)CC1` [Example 38, (1R,2R)-2-(2-(4-chlorophenyl)-4-(4-(1,1-dioxidothiomorpholino)phenyl)oxazol-5-yl)-N-(1-cyanocyclopropyl) cyclohexanecarboxamide], the IC50 in assay [1] was determined as 1.28 nM; in assay [2], 308 nM.

Take `CS(=O)(=O)N1CCN(C(=O)c2ccc(-c3nc(C(F)(F)C(F)(F)F)oc3[C@@H]3CCC(F)(F)C[C@H]3C(=O)NC3(C#N)CC3)cc2)CC1` [Example 140, (1R,2R)-N-(1-cyanocyclopropyl)-5,5-difluoro-2-(4-(4-(4-(methylsulfonyl)piperazine-1-carbonyl)phenyl)-2-(perfluoroethyl)oxazol-5-yl)cyclohexanecarboxamide]: the IC50 in assay [1] was found to be 1.93 nM; in assay [2] it was 372 nM.

Consider `N#CC1(NC(=O)[C@@H]2CCCC[C@H]2c2oc(-c3cncnc3)nc2-c2ccc(N3CCS(=O)(=O)CC3)cc2)CC1` [Example 35, (1R,2R)-N-(1-cyanocyclopropyl)-2-(4-(4-(1,1-dioxidothiomorpholino)phenyl)-2-(pyrimidin-5-yl)oxazol-5-yl) cyclohexanecarboxamide], for which the IC50 in assay [1] turned out to be 1.11 nM; in assay [2] it was 993 nM.

As to `N#CC1(NC(=O)[C@@H]2CCCC[C@H]2c2oc(-c3ccccc3OC(F)(F)F)nc2-c2ccc(N3CCS(=O)(=O)CC3)cc2)CC1` [Example 63, (1R,2R)-N-(1-cyanocyclopropyl)-2-(4-(4-(1,1-dioxidothiomorpholino)phenyl)-2-(2-(trifluoromethoxy)phenyl)oxazol-5-yl)cyclohcxanecarboxamide], the figures for the IC50 in assay [1] and in assay [2] were 1.23 nM and 639 nM, respectively.

Take `CC1(c2nc(-c3ccc(N4CCS(=O)(=O)CC4)cc3)c([C@@H]3CCCC[C@H]3C(=O)NC3(C#N)CC3)o2)CC[Si](C)(C)CC1` [Example 53, (1R,2R)-N-(1-cyanocyclopropyl)-2-(4-(4-(1,1-dioxidothiomorpholino)phenyl)-2-(1,1,4-trimethylsilinan-4-yl)oxazol-5-yl)cyclohexanecarboxamide]: the values for the IC50 in assay [1] and in assay [2] were 1.93 nM and 582 nM, respectively.

On to `N#CC1(NC(=O)[C@@H]2CCCC[C@H]2c2oc(-c3ccc(C(F)(F)F)cn3)nc2-c2ccc(N3CCS(=O)(=O)CC3)cc2)CC1` [Example 81, (1R,2R)-N-(1-cyanocyclopropyl)-2-(4-(4-(1,1-dioxidothiomorpholino)phenyl)-2-(5-(trifluoromethyl)pyridin-2-yl)oxazol-5-yl)cyclohexanecarboxamide], for which the IC50 in assay [1] amounted to 2.99 nM; in assay [2], 3060 nM.

Turning to `CS(=O)(=O)C1CN(c2ccc(-c3nc(C(F)(F)C(F)(F)F)oc3[C@@H]3CCCC[C@H]3C(=O)NC3(C#N)CC3)cc2)C1` [Example 23, (1R,2R)-N-(1-cyanocyclopropyl)-2-(4-(4-(3-(methylsulfonyl)azetidin-1-yl)phenyl)-2-(perfluoroethyl)oxazol-5-yl)cyclohexanecarboxamide], the IC50 came out at 0.62 nM in assay [1] and 383 nM in assay [2].

`N#CC1(NC(=O)[C@@H]2CC(F)(F)CC[C@H]2c2oc(-c3ccc(F)cc3)nc2-c2ccc(C(=O)N3CCOCC3)cc2)CC1` [Example 24, (1R,2R)-N-(1-cyanocyclopropyl)-5,5-difluoro-2-(2-(4-fluorophenyl)-4-(4-(morpholine-4-carbonyl)phenyl)oxazol-5-yl)cyclohexanecarboxamide]: the IC50 came to 0.68 nM in assay [1] and 181 nM in assay [2].

Consider `N#CC1(NC(=O)[C@@H]2CC(F)(F)CC[C@H]2c2oc(CC(F)(F)F)nc2-c2ccc(N3CCS(=O)(=O)CC3)cc2)CC1` [Example 16, (1R,2R)-N-(1-cyanocyclopropyl)-2-(4-(4-(1,1-dioxidothiomorpholino)phenyl)-2-(2,2,2-trifluoroethyl)oxazol-5-yl)-5,5-difluorocyclohexane-carboxamide], for which the IC50 came to 0.61 nM in assay [1] and 209 nM in assay [2].

For the compound `N#CC1(NC(=O)[C@@H]2CCCC[C@H]2c2oc(-c3cccc(F)c3)nc2-c2ccc(N3CCS(=O)(=O)CC3)cc2)CC1` [Example 62, (1R,2R)-N-(1-cyanocyclopropyl)-2-(4-(4-(1,1-dioxidothiomorpholino)phenyl)-2-(3-fluorophenyl)oxazol-5-yl)cyclohexanecarboxamide], the values for the IC50 in assay [1] and in assay [2] were 0.92 nM and 492 nM, respectively.

With `N#CC1(NC(=O)[C@@H]2CCCC[C@H]2c2oc(-c3ccc(C4CC4)cc3)nc2-c2ccc(N3CCS(=O)(=O)CC3)cc2)CC1` [Example 101, (1R,2R)-N-(1-cyanocyclopropyl)-2-(2-(4-cyclopropylphenyl)-4-(4-(1,1-dioxidothiomorpholino)phenyl)oxazol-5-yl)cyclohexanecarboxamide], the values for the IC50 in assay [1] and in assay [2] were 0.88 nM and 377 nM, respectively.
